From patent US20220017516A1, “LOX INHIBITORS” (THE INSTITUTE OF CANCER RESEARCH: ROYAL CANCER HOSPITAL, priority 2018, published 2022) come the findings set out here.

Residue numbers refer to the chain shown, from its start.

The term IC50 denotes the concentration at which inhibition is half-maximal. What is called inhibition is the drop in the measured response relative to a control, in per cent.

The target of experiment [1] is T1, LOX (Sus scrofa, UniProt P45845).
T1 construct: LOX was extracted from pig skin by previously described methods; from tissue; host or cells: pig skin
T1 sequence (P45845 1-249): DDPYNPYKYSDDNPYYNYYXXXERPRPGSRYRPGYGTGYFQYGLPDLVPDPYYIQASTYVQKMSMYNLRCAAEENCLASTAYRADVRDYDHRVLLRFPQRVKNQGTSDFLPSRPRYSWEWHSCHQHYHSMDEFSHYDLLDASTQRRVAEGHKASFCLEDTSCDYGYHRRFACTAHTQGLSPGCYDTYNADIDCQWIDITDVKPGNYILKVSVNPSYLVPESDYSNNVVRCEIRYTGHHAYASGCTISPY
As to the kind of experiment: LOX isoform activity assay (ROS Glo), LOX. The class given is biochemical, pig. As to conditions: 1 h incubation with enzyme. How it is done:
(§1) LOX was extracted from pig skin by previously described methods (Shackleton and Hulmes, 1990). LOXL2 and LOXL3 were obtained from R&D Systems/Bio-techne. The Promega ROS Glo assay kit (G8821) was used to assess enzyme activity. Overall, test compound was added to either 384 well assay plates (Greiner) using a Labcyte Echo™ Acoustic Handler or to 96 well plates for a final assay concentration of 100, 30, 10, 3, 1, 0.3, 0.1, 0.03, 0.01 and 0.003 μM final assay concentration. Enzymes were diluted according to specific pre-determined activity in assay buffer (100 mM CHES, pH 9, 0.05% (w/v) pluronic F-127, 0.5% (w/v) BSA, 1 mM MgCl2, 1 M urea, 100 mM NaCl) and added to the plate. For LOXL2, the mixture was incubated for 20 min, 1 h or 20 h; for LOX and LOXL3, incubation time was 1 h. Cadaverine and H2O2 substrate were then added to each well (final assay concentration 19.56 mM and 25 μM respectively) and the plates were incubated for 1.5 h (for LOX) or 1 h (for LOXL2 and LOXL3) at room temperature. Finally, luciferin detection reagent was added and plates were incubated for 20 min at room temperature, protected from light. Luminescence was measured using a BMG LABTECH PHERAstar FS reader and resulting IC50 values were calculated using GraphPad Prism software.

For experiment [2], the target named is T2, LOXL2 (Homo sapiens, UniProt Q9Y4K0).
T2 construct: purchased R&D Systems/Bio-techne
T2 sequence (Q9Y4K0 26-774): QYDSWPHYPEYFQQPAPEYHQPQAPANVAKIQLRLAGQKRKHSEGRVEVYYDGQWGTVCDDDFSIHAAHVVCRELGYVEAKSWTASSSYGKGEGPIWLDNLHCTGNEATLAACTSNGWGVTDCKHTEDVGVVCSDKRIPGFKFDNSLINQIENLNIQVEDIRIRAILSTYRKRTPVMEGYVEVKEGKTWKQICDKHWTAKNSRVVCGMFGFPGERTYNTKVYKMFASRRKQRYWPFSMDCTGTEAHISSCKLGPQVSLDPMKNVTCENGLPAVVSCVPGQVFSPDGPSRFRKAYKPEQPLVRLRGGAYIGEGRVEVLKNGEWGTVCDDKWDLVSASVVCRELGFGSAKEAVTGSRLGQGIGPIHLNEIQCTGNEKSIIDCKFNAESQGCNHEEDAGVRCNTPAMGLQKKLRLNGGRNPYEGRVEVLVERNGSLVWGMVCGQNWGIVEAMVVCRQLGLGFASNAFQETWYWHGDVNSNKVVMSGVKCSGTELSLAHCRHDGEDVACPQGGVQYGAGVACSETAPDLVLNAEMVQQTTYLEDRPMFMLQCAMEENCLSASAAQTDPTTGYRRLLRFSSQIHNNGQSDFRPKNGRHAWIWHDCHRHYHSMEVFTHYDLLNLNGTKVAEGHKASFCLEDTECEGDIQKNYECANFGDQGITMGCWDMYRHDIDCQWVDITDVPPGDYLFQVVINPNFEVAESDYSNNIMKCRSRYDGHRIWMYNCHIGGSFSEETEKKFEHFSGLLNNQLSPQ
Kind of experiment: LOX isoform activity assay (ROS Glo), LOXL2. It counts as biochemical. As to conditions: 1 hr incubation with enzyme; read-out: LOXL2 IC50 b) 1 hr. How it is done: as §1
In another setting, LOXL2 enzyme was diluted according to specific pre-determined activity in assay buffer (100 mM CHES, pH 9, 0.05% (w/v) pluronic F-127, 0.5% (w/v) BSA, 1 mM MgCl2, 1 M urea, 100 mM NaCl). Overall, 0.5 μl test compound was added to 40 μl assay buffer+LOXL2 at 100, 30, 10, 3, 1, 0.3, 0.1, 0.03, 0.01 and 0.003 μM (final concentration) in a 96-well white polystyrene, flat bottom plates (Fisher) and incubated for the indicated time at room temperature. 10 μl of assay buffer containing 97.8 mM cadaverine and 125 μM H2O2 substrate (final assay concentration 19.56 mM and 25 μM respectively) were added to each well and plates were incubated for 1 h at room temperature. Finally, 50 μl per well luciferin detection reagent was added and plates were incubated for 20 min at room temperature, protected from light. Luminescence was measured with an integration time of 500 ms per well using a SpectaMax M5 plate reader and resulting IC50 values were calculated using GraphPad Prism software.

For experiment [3], the target named is T3, LOXL3 (Homo sapiens, UniProt P58215).
T3 construct: purchased R&D Systems/Bio-techne
T3 sequence (P58215 26-753): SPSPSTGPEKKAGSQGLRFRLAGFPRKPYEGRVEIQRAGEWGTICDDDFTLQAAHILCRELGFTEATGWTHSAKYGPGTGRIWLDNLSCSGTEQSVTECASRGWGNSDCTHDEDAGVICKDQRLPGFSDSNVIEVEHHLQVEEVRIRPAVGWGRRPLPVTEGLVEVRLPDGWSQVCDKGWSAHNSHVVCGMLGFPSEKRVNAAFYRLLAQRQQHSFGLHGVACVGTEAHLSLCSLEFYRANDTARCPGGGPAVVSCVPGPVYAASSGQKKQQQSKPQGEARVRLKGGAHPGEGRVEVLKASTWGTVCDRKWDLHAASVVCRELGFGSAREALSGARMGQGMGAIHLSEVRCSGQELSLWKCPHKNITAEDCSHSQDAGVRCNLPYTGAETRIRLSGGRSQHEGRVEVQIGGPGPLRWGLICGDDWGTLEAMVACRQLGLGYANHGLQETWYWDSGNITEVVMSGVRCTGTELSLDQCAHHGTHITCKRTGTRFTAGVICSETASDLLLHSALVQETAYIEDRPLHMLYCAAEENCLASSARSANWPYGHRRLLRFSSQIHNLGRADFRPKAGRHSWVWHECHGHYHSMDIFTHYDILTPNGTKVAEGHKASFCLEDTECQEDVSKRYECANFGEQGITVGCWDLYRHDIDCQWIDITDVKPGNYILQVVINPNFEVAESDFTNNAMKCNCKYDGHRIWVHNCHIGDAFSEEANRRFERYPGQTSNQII
As to the kind of experiment: LOX isoform activity assay (ROS Glo), LOXL3. As to conditions: 1 h incubation with enzyme. The class given is biochemical. How it is done:
as §1

Experiment [4] concerns the target T4, LOX (Mus musculus, UniProt P28301).
T4 construct: Full length LOX cDNA was then PCR cloned into pEGFP-N1 (Clonetech), or biosensor vector proGFP2—N1; expressed in transfected cells; host or cells: MDCK cells grown as cysts on Matrigel
T4 sequence (P28301 163-411): T1 sequence (P45845 1-249) with X20D, X21T, X22Y, Y31N, T80S, S142N, N188A, K202Q, S224T, E231D
As to the kind of experiment: LOX activity in cysts assay (roGFP2 LOX biosensor in MDCK cysts). The class given is cell-based. The note with it: LOX, read-out: Cyst LOX @ 10 uM (% inhibition). How it is done:
All cell lines used in this study were purchased from American Type Culture Collection (ATCC). Mycoplasma contamination was routinely monitored by PCR. Cells used were not found to be Mycoplasma positive. MDCK cell lines were cultured in Dulbecco's Modified Eagle Medium (DMEM) supplemented with 10% fetal bovine serum (FBS) and 1% Penicillin Streptomycin solution (Pen Strep). For GFP constructs transfection in MDCK cells, lipofectamine 3000 was used according to manufactures protocols. Cells were either selected with G418 (Life Technologies) at 5 mg/ml. All cell culture reagents were purchased from Life Technologies.
To produce MDCK cysts, cells were cultured on Matrigel (Corning) with 2% Matrigel supplemented in DMEM with 10% FBS. Cysts were allowed to form for 10 days before subsequent studies.
Mouse LOX cDNA was purchased from OriGene. Full length LOX cDNA was then PCR cloned into pEGFP-N1 (Clonetech), or biosensor vector proGFP2—N1 (Hanson, 2004) using the following primers, […] (forward primer) and […] (reverse primer). For the insertion into pEGFP-N1 or proGFP2—N1, Nhel and Xhol restriction sites were added to forward and reverse primers accordingly. Mutant LOX constructs were made using QuickChange II site-directed mutagenesis kit (Agilent Technologies) following manufacture's protocol using LOX-GFP as template. To generate, roGFP2 versions of LOX mutant constructs, LOX mutant cDNA was transferred from pEGFP-N1 to proGFP2—N1 using Nhel and Xhol.
All photomicrographs were taken with a Leica TCS SP8 X confocal system. For LOX biosensor imaging, live MDCK cysts were used. The oxidised biosensor was excited using a 405 nm laser, while the reduced biosensor was excited with a 488 nm laser. Emission of the biosensor was recorded at 500 nm-530 nm range using sequential scans. Ratio images were generated following a published protocol {Kardash, 2011 #376}. Note, while the published protocol generates YFP/CFP ratio images, we used it to generate Oxidised/Reduced (roGFP2 ratio) ratio images. The roGFP2 ratio at the basal surface of MDCK cysts was used to indicate LOX inhibition. LOX inhibitors were added 30 min prior to imaging.
For clarity, readout for DMSO treated cysts represents 0% inhibition (no inhibition) and readout for BAPN at 1 mM is used as 100% inhibition (full inhibition).

As to `NCCS(=O)(=O)C(F)C(=O)N1C[C@@H]2CN(c3ccc(Br)cc3)C[C@@H]2C1` (stereo partly drawn) [Example 19, 2-((2-Aminoethyl)-sulfonyl)-2-fluoro-1-(cis-5-(4-bromo-phenyl)hexahydro-pyrrolo[3,4-c]pyrrol-2(1H)-yl)ethan-1-one], the IC50 in experiment [1] was found to be 0.66 µM; in experiment [2], 0.15 µM; in experiment [3] it was 0.22 µM.
In the same order, the values of `NCCS(=O)(=O)C(F)C(=O)N1C[C@@H]2CN(c3ccc(F)cc3)C[C@@H]2C1` (mixture of isomers) [Example 18] are 2.3 µM, 0.23 µM and 0.44 µM.
In the same order, the values of `NCCS(=O)(=O)C(F)C(=O)N1C[C@@H]2CN(c3c(F)c(F)c(F)c(F)c3F)C[C@@H]2C1` (stereo partly drawn) [Example 20, 2-((2-aminoethyl)-sulfonyl)-2-fluoro-1-(cis-5-(perfluoro-phenyl)hexahydro-pyrrolo[3,4-c]pyrrol-2(1H)-yl)ethan-1-one] are 2.4 µM, 0.24 µM and 0.34 µM.
In the case of `CCOc1ccc(N2C[C@H]3CN(C(=O)Nc4ccc(S(=O)(=O)CCN)cc4)C[C@@H]2C(C)(C)C3)cc1` [Example 37, (1S,5S)—N-(4-((2-aminoethyl)sulfonyl)phenyl)-6-(4-ethoxyphenyl)-9,9-dimethyl-3,6-diazabicyclo[3.2.2]nonane-3-carboxamide], in experiment [4], the inhibition at 10 µM was determined as 78%. The IC50 in experiment [1] came to 26 µM; in experiment [2] it was 20 µM.
